Like-named read-outs stand apart in the source and are kept apart here.

One assay addresses CsPRAC. The conditions noted are these: value given for comparison; cited from earlier work.
The target of assay [1] is T1, TcPRAC (Trypanosoma cruzi, UniProt Q4DA80).
T1 construct: implied only by nickel IMAC purification; made in house; host or cells: E. coli BL21 (DE3)
As to the kind of experiment: L-proline racemization assay, formed D-proline determined by DAAOx test. Format: biochemical. How it is done:
(§1) Briefly, classical assays of Proline racemization induced by TcPRAC were performed in tubes in a final volume of 1.5 ml and optical rotations measured in a polarimeter 241MC (Perkin Elmer). Parallel assays of Proline racemization were transposed into microplates in a final volume of 100 µl, as follows: serial dilutions of L- Proline ranging from 40 mM to 2.5 mM were prepared in 0.2 M sodium acetate pH 6.0 containing 0.25 mM rTcPRAC and loaded into microplate wells in the presence or in the absence of 0 - 20 µM pyrrole-2 carboxylic acid (PYC) or of similar dilutions of unknown potential inhibitors. Specific control wells were included omitting the TcPRAC and/or the PYC.
Microplates were incubated for 30 minutes at 37° C. Enzyme activity was then inactivated by heating the plate for 15 seconds in a microwave oven at 900 watts after shifting the pH of wells to 8.3 by addition of 6.8 µl of 0.235 M sodium Pyrophosphate. 50 µl of each well were used to test the presence of D-Proline using the DAAOx (D-amino acid oxidase) test described below. L- amino acids may react at very low rate with DAAOx. For instance, DAAOx reacts with L-Proline 300 times slower than D-Proline. Consequently, when assessing amino acid racemization products, standards should consist of serial dilution of equimolar mixtures of specific D- and L-amino acids ranging from 0 to 20 mM (10 mM final) to take into account any interference of possible reactivity with DAAOx of the L- form of amino acids present in the samples.
Solution A consisting of 0.2 M sodium acetate/0.016 M sodium pyrophosphate (Pop) buffer, pH 8.3 was used to prepare the enzyme stock solutions conserved in 50% glycerol, namely: 50 U/ml D-amino acid oxidase from pig kidney (DAAOx, Sigma) and 5000 U/ml Horse Raddish Peroxydase (HRP, Sigma). Stock solutions of L- proline (1M), D- proline (1M) and Pyrrole-2-carboxylic acid (10 mM) (PYC, Sigma) are also prepared in solution A. 10^-1 M FAD (Sigma) stock was prepared in water. Solution B consists in adding to solution A the following reagents at a final concentration in the assay of 1 U/ml for DAAOx, 0.5 mg/ml orthophenylenediamine (OPD, Sigma), 37.5 U/ml HRP and FAD (1.5x10^-5 M FAD). The test is run in 96 wells micro plates (Nunc, Denmark). […] OD 490nm - 650nm is obtained with a microtiter plate reader (Molecular Devices), and compared to those obtained with blank control wells.
The values presented in Table 2A correspond to racemization reactions performed in the absence or in the presence of 10 µM concentration of the different ligands. […] Briefly, 22.4 mg/ml of active TcPRAC was used in the racemization assays of 10 mM L-proline substrate and the concentration of formed D-proline was determined by the DAAOx test, as described in the Material and Methods. […]

The next assay addresses recombinant TvPRAC. The conditions noted are these: 5 µM PYC, 20-160 mM L-proline; Chamond et al 2009; cited from earlier work.
In the next assay the test system is T. cruzi. Description: Capture ELISA of Vero cultures infected 17h with or without inhibitor. Format: cell-based, Trypanosoma cruzi. The settings on record: 17h at 37°C, 10:1 parasite/cell ratio; 0-30 mM OxoPA, Br-OxoPA or 10-1000 µM PYC in DMSO; Fig. 9. On the procedure: Flat-bottomed microtiter plates (Nunc, Denmark) were coated overnight at 4°C with rabbit anti-T. cruzi polyclonal antibodies and further blocked for 4 h at room temperature (RT) with 1% BSA, 0.05% Tween 20 in PBS. After washings, lysate samples from infected or control Vero cultures, or from T. cruzi, were then added and incubated at 4°C for 18h. Plates were washed with PBS-Tween and incubated for 2h at RT with polyclonal mouse anti-T. cruzi chronic serum, washed again and incubated for 1 h at RT with HRP-secondary antibodies. […] Optical densities were determined in a spectrophotometer at 450 nm and 650 nm and analyzed using Softmax Pro software.
To confirm the effect of the inhibitors in the initial steps of the host-parasite interaction, cultures were infected for 17h at 37°C at a 10:1 parasite/cell ratio with or without increasing doses of freshly prepared dilutions (0-30 mM) of OxoPA, Br-OxoPA (15), or (10-1000 µM) of PYC, previously dissolved in DMSO and further analyzed by capture ELISA (see methods and Fig. 9). […] Three ongoing studies were performed to determine whether TcPRAC inhibition by the new compounds affects parasite intracellular fate. To do this, host cells were infected for 17 hours then washed and different ligand concentrations (5 mM, 10 mM, 30, 100 mM) were added to the medium. The degree of infection was determined over 48 hours by capture ELISA. The number of parasites per well decreased in a dose-dependent manner (Fig. 7). These experiments indicate that TcPRAC inhibition by OxoPA and Br-OxoPA affects both cellular infection by T. cruzi and parasite development in tissues.
Background: In an ELISA, binding on a coated surface is turned into a signal by an enzyme label.

In assay [2] the target is T1, TcPRAC. Description: L-proline racemization assay by polarimetry. Format: biochemical. The settings on record: ligand 10.0 µM; L-Proline 20 mM, 30 minutes 37°C, 0.25 µM TcPRAC. How it is done: as §1
The values presented in Table 2B correspond to racemization reactions performed in the absence or in the presence of the different inhibitors. Note that 6 µM PYC is necessary to inhibit 100 % of the racemization of 10-20 mM L-proline. Briefly, L-Proline (20 mM) were incubated for 30 minutes at 37°C in test tubes with or without 0.25 µM TcPRAC in 0.2 M sodium acetate pH 6. Reactions were stopped by heating at 65° C for 10 minutes. Reaction volumes were analyzed for D-Proline formation, by measuring optical rotations in a polarimeter (365nm).

Assay [3] concerns T.cruzi CL Brener (clone F11-F5). The conditions noted are these: cited from earlier work; for Mean number of parasites/ cell / % Infected cells / Endocytic index: from previous work; for Endocytic index (EI): Table 5, same PYC data as Table 3A.
Assay [4] has as its target T1, TcPRAC. The conditions noted are these: cited from earlier work.
The target of assay [5] is T1, TcPRAC. Format: biochemical. The settings on record: in words; for inhibition of TcPRAC activity: Table 1.
Protocol: Optimum Proline racemization conditions for TcPRAC were determined using 10-20 mM L-Proline in 0.2 M NaOAc, as a function of pH, as described [24].
Briefly, classical assays of Proline racemization induced by TcPRAC were performed in tubes in a final volume of 1.5 ml and optical rotations measured in a polarimeter 241MC (Perkin Elmer). […] Specific control wells were included omitting the TcPRAC and/or the PYC.
Microplates were incubated for 30 minutes at 37° C. Enzyme activity was then inactivated by heating the plate for 15 seconds in a microwave oven at 900 watts after shifting the pH of wells to 8.3 by addition of 6.8 µl of 0.235 M sodium Pyrophosphate. 50 µl of each well were used to test the presence of D-Proline using the DAAOx (D-amino acid oxidase) test described below [25]. L- amino acids may react at very low rate with DAAOx. For instance, DAAOx reacts with L-Proline 300 times slower than D-Proline. Consequently, when assessing amino acid racemization products, standards should consist of serial dilution of equimolar mixtures of specific D- and L-amino acids ranging from 0 to 20 mM (10 mM final) to take into account any interference of possible reactivity with DAAOx of the L- form of amino acids present in the samples.
Solution A consisting of 0.2 M sodium acetate/0.016 M sodium pyrophosphate (Pop) buffer, pH 8.3 was used to prepare the enzyme stock solutions conserved in 50% glycerol, namely: 50 U/ml D-amino acid oxidase from pig kidney (DAAOx, Sigma) and 5000 U/ml Horse Raddish Peroxydase (HRP, Sigma). Stock solutions of L- proline (1M), D- proline (1M) and Pyrrole-2-carboxylic acid (10 mM) (PYC, Sigma) are also prepared in solution A. 10^-1 M FAD (Sigma) stock was prepared in water. Solution B consists in adding to solution A the following reagents at a final concentration in the assay of 1 U/ml for DAAOx, 0.5 mg/ml orthophenylenediamine (OPD, Sigma), 37.5 U/ml HRP and FAD (1.5x10^-5 M FAD). […] OD 490nm - 650nm is obtained with a microtiter plate reader (Molecular Devices), and compared to those obtained with blank control wells. […]

T1 sequence (Q4DA80 32-423): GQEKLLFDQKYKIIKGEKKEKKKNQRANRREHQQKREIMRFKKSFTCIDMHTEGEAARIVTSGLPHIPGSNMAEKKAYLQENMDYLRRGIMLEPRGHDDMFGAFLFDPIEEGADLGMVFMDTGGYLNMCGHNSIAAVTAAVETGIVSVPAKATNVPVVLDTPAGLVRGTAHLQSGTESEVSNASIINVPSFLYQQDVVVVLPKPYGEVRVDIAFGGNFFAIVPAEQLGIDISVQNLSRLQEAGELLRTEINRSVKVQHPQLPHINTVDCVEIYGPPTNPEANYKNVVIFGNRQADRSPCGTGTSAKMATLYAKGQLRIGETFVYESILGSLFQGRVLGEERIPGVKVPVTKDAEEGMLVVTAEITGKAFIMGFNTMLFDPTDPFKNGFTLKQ

Usually Ki stands for the dissociation constant of the complex between target and ligand, obtained from inhibition or displacement. One may read the IC50 as the concentration needed to halve the response being measured. With `O=C(O)c1ccc[nH]1` [PYC, pyrrole-2-carboxylic acid], the values for the Ki at CsPRAC, on recombinant TvPRAC and at TcPRAC [4] (value given for comparison) were 18 µM, 20 µM and 6.7 µM, respectively. The molecule also returned a half-inhibitory concentration (IC50) on TcPRAC [1] of approximately 10 µM. For the same molecule, the “Formed D-Proline” value at TcPRAC [1] (ligand 10 µM, 10 mM L-proline, 22.4 mg/ml TcPRAC, 5.0mM without ligand) was 2.4 mM (IC50). For the same molecule, the “inhibition of cellular infection” value with T. cruzi was “no particular differences were observed”. In addition, at TcPRAC [2], the “Racemization Inhibition” value is 56.9%. The “Mean number of parasites/ cell” value in assay [3] (10 µM, 2 at 0) is reported as 1,7; in assay [3] (100 µM) it was 1,5; in assay [3] (1000 µM), 1,0. Besides, the “% Infected cells” value is 75,0% in assay [3] (10 µM, 90,0 at 0); 45,0% in assay [3] (100 µM); 25,0% in assay [3] (1000 µM). The Endocytic index in assay [3] (10 µM) is recorded as 44; in assay [3] (100 µM), 30; in assay [3] (1000 µM), 25. Further, the “Endocytic index (EI)” value is given as 44 in assay [3] (Inhibitor concentration 10), 30 in assay [3] (Inhibitor concentration 100) and 25 in assay [3] (Inhibitor concentration 1000). Further, the “PYC necessary to inhibit 100 % of the racemization of 10-20 mM L-proline” value on TcPRAC [4] (reference [15]) was 6 µM. Moreover, on TcPRAC [4] (reference [15]), the “affinity for the TcPRAC catalytic pocket” value is 6 µM.

`O=C(O)c1n[nH]cc1Cl` [Pyrazole 4-chloro 5-carboxylic, 4-chloro-1H-pyrazole-3-carboxylic acid]: on TcPRAC [5], the “inhibition of TcPRAC activity” value is “weak inhibitions”.

`O=C(O)c1n[nH]cc1Br` [Pyrazole 4-bromo 5-carboxylic, 4-bromo-1H-pyrazole-3-carboxylic acid]: the “inhibition of TcPRAC activity” value against TcPRAC [5] is on record as “weak inhibitions”.

For the molecule `O=C(O)c1cc[nH]n1` [Pyrazole 5-carboxylic, 1H-pyrazole-3-carboxylic acid], the “activity with PRAC (Figure 1 compounds)” value at TcPRAC [5] was “very weakly active”.
